From US6087364A, “Dopamine D4 receptor antagonists” (Warner-Lambert Company, priority 1998, dated 2000) come the findings set out here.

Where two headings read alike, the source gives them in different places.

Experiment [1] deals with T1, human recombinant dopamine D4.2 receptor (Homo sapiens, UniProt P21917, DEL265-296).
T1 construct: expressed in transfected cells
T1 sequence (P21917 with tags, fused parts or gaps DEL265-296): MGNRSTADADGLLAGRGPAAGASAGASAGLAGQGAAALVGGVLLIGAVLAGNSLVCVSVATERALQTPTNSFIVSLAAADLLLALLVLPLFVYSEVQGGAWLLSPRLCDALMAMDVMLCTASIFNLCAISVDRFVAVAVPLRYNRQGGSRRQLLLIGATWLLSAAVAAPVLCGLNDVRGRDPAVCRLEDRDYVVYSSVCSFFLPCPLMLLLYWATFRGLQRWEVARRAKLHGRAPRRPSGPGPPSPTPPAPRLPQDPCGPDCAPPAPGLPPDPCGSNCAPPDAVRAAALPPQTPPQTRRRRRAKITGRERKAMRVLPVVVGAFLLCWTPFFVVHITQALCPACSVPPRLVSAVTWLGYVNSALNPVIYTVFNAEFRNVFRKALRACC
The experiment can be described thus: D4.2 dopamine receptor binding assay ([3H]spiperone, membranes of CHO K1 cells). The note with it: human D4.2 receptor, 0.2 nM [3H]spiperone, 60 min, 25° C., apparent Ki from IC50 (Cheng and Prusoff). The source says: (§1) A cell line expressing human dopamine D2 (Long form) receptors was purchased from Oregon Health Sciences University, Portland, Oreg. The D2 receptor cDNA was subcloned into an expression vector, pRc/CMV. The plasmids were transfected by electroporation into CHO K1 cells. A single stable transfectant, resistant to the antibiotic G418, was isolated and selected for use in the binding studies. For D4 binding, CHO K1 cells stably transfected to express the human recombinant dopamine D4.2 receptor subtype, as described by Shih, et al., "The Expression and Functional Characterization of Human Dopamine D4.2 Receptor in CHO K1 Cells," Soc. Neurosci., 21(Part 1): 621 (1995).
(§2) CHO K1 cells expressing either human D2 and D4.2 receptors were grown in 162 cm^2 culture flasks in F12 medium (Gibco Laboratories, Grand Island, N.Y.) supplemented with 10% fetal bovine serum (FBS, Hyclone, Logan, Utah) in an atmosphere of 5% CO2 /95% air at 37° C. Cells were grown until confluent, after which growth medium was removed and replaced with 0.02% ethylene diamine tetracetate (EDTA) in a phosphate-buffered saline solution (Sigma Chemical Co., St. Louis, Mo.) and scraped from the flasks. The cells were centrifuged at about 1000× g for 10 minutes at […] and then resuspended in TEM buffer (25 mM Tris-HCl, pH 7.4, 5 mM EDTA, and 6 mM MgCl2) for D2 or the D4.2 buffer (50 mM Tris-HCl, pH 7.4, 5 mM EDTA, 1.5 mM CaCl2, 5 mM KC1, and 120 mM NaCl) and homogenized. The membranes were pelleted by centrifugation at 20,000× g at […] for 20 minutes. Then the pellets were resuspended in appropriate buffer at 1 mL/flask and stored at -70° C. until used in the receptor binding assay.
(§3) After 60 minutes incubation at 25° C., the incubations were terminated by rapid filtration through Whatmann GF/B glass fibre filters (soaked for 1 hour in 0.5% polyethylenimine) on a cell harvester, with three washes of 1 mL ice-cold buffer. Individual filter disks containing the bound ligand were placed in counting vials with 4 mL of scintillation fluid (Ready Gel, Beckman Instrument Inc., Fullerton, Calif.) and then counted in a Beckman LS-6800 liquid scintillation counter at an efficiency of 45%. Nonspecific binding was defined in presence of 1 mM of haloperidol.
(§4) Saturation and competition binding data were analyzed using an iterative nonlinear least-square curve-fitting Ligand program. […] Experimental compounds were made up as stock solutions in dimethyl sulfoxide (DMSO). […] Each observation was carried out in triplicate. To allow these calculations, Kd values were measured for the interaction of various ligands with the receptor.

Experiment [2] deals with amphetamine-stimulated locomotion. The experiment can be described thus: Blockade of Amphetamine-Stimulated Locomotion (BASL) in Rats. The class given is in vivo, Male Sprague-Dawley rats. The note with it: Rattus norvegicus, 0.5 h, read-out: BASL ED50, mg/kg PO (dose which would reverse amphetamine-stimulated locomotion by 50%), drug 30 minutes prior to test, amphetamine 0.5 mg/kg IP 15 minutes prior to test, 30 minute test. The source says:
Blockade of Amphetamine-Stimulated Locomotion (BASL) in Rats
Hyperactivity of brain dopamine (DA) neuronal systems is believed to contribute to the symptomology of schizophrenia. This hypothesis is supported, in part, by the ability of drugs such as the indirect DA agonist, amphetamine, to exacerbate schizophrenia. The stimulatory effect of amphetamine can be blocked by one of two mechanisms: a postsynaptic blockade of DA receptors, or by the action of DA autoreceptor agonists at inhibitory presynaptic DA receptor sites. Currently available antipsychotic drugs are DA receptor antagonists; however, these compounds can also cause extrapyramidal side effects apparently due to complete postsynaptic receptor blockade. Antipsychotic agents produce sedation (manifested as decreased locomotion) in normal animals, as well as in animals treated with psychomotor stimulants by reducing the access of endogenous DA to postsynaptic receptors in the brain.
Male Sprague-Dawley rats (Harlan Labs) were used for these studies. Drugs were dissolved in saline or water and administered either orally (PO) or intraperitoneally (IP) in volumes of 5 mL/kg. Saline control rats and amphetamine (0.5 mg/kg IP) control rats are included with each study (n=4-6 rats per treatment group). for the IP studies, amphetamine is given 20 minutes prior to the drug, after which a 30 minute locomotor activity test is conducted. For the oral study, drug is dosed 30 minutes prior to test, while amphetamine is given 15 minutes prior to test, which allows time for oral absorption. Locomotor activity (centimeters travelled per 30 minute test) is measured in 16"×16" open chambers. Amphetamine generally produces a 2- to 3-fold increase in locomotion over saline controls. Drug effects are reported as percent reversal of amphetamine-stimulated locomotion. Significant changes in amphetamine-stimulated locomotion, relative to amphetamine-treated controls, were determined by t-test.

The target in experiment [3] is human dopamine D2 (Long form) receptor (Homo sapiens, UniProt P14416). The experiment in a line: D2 dopamine receptor binding assay ([3H]spiperone, membranes of CHO K1 cells).
human dopamine D2 (Long form) receptor, sequence (P14416 whole entry): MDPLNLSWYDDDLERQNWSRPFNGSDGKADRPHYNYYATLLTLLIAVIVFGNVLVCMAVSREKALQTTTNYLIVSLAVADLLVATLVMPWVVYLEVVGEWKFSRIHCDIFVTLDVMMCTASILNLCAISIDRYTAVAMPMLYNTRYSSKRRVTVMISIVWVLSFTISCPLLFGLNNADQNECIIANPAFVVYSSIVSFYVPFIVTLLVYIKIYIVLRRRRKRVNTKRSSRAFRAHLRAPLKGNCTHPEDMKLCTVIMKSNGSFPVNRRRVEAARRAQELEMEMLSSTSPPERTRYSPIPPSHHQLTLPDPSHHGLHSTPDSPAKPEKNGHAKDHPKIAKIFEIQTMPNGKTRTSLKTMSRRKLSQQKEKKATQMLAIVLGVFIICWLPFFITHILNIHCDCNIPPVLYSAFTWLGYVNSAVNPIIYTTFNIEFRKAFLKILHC
From the text: as §1, §2, §3, §4

As for `Cc1ccc(N2CCN(CCC3NC(=O)c4ccccc43)CC2)cc1C` (single isomer, unassigned; (+)) [(+)-3-{2-[4-(3,4-Dimethyl-phenyl)-piperazin-1-yl]-ethyl}-2,3-dihydro-isoindol-1-one], the Ki in experiment [1] stood at 42 nM.

As for `Cc1ccc(N2CCN(CCC3NC(=O)c4ccccc43)CC2)cc1C` (single isomer, unassigned; (-)) [(-)-3-{2-[4-(3,4-Dimethyl-phenyl)-piperazin-1-yl]-ethyl}-2,3-dihydro-isoindol-1-one], in experiment [1], the Ki was found to be 7.8 nM. In experiment [2], the ED50 is 1.5 mg/kg.

Take `Cc1nc(N2CCN(CCC3NC(=O)c4ccccc43)CC2)sc1C` (stereo not drawn) [3-[2-(4-(4,5-Dimethyl-thiazol-2-yl)-piperazin-1-yl)-ethyl]-2,3-dihydro-isoindol-1-one]: the values for the Ki in experiment [1] and in experiment [3] were 20.8 nM and over 5.88 µM, respectively.

On to `O=C1NC(CCN2CCC(=C(c3ccccc3)c3ccccc3)CC2)c2ccccc21` (stereo not drawn) [3-[2-(4-(Diphenylmethylene)-piperidin-1-yl)-ethyl]-2,3-dihydro-isoindol-1-one], for which the Ki is 99.7 nM in experiment [1] and 2.15 µM in experiment [3].

For `Cc1ccc(N2CCN(CCC3NC(=O)c4ccccc43)CC2)cc1` (stereo not drawn) [3-[2-(4-P-Tolyl-piperazin-1-yl)-ethyl]-2,3-dihydro-isoindol-1-one], the Ki in experiment [1] is 12.4 nM; in experiment [3], over 5.88 µM. Further, the ED50 in experiment [2] was under 1 mg/kg.

On to `O=C1NC(CCN2CCN(c3ccccc3)CC2)c2ccccc21` (stereo not drawn) [3-[2-(4-Phenyl-piperazin-1-yl)-ethyl]-2,3-dihydro-isoindol-1-one], for which the Ki in experiment [1] is 24.5 nM.

Consider `O=C1NC(CCN2CCN(c3ccc(Cl)cc3)CC2)c2ccccc21` (stereo not drawn) [3-[2-(4-p-Chlorophenyl-piperazin-1-yl)-ethyl]-2,3-dihydro-isoindol-1-one], for which the figures for the Ki in experiment [1] and in experiment [3] were 27.8 nM and over 5.88 µM, respectively.

Regarding `COc1ccc(N2CCN(CCC3c4ccccc4C(=O)N3C)CC2)cc1` (stereo not drawn) [3-[2-(4-p-Methoxyphenyl-piperazin-1-yl)-ethyl]-2,3-dihydro-2-methyl-isoindol-1-one], the values for the Ki in experiment [1] and in experiment [3] were 37.3 nM and over 5.88 µM, respectively.

With `Cc1ccc(N2CCN(CCC3NC(=O)c4ccccc43)CC2)cc1C` (stereo not drawn) [3-{2-[4-(3,4-Dimethyl-phenyl)-piperazin-1-yl]-ethyl}-2,3-dihydro-isoindol-1-one], the Ki in experiment [1] was determined as 8.77 nM. The ED50 in experiment [2] is 3 mg/kg.

Consider `Cc1ccc(C2CCN(CCC3NC(=O)c4ccccc43)CC2)cc1C` (stereo not drawn) [3-{2-[4-(3,4-Dimethyl-phenyl)-piperidin-1-yl]-ethyl}-2,3-dihydro-isoindol-1-one], for which the Ki amounted to 9.27 nM in experiment [1]; 1.21 µM in experiment [3] (human D2 receptor, CHO K1 membranes, 0.2 nM [3H]spiperone, 60 min, 25° C., apparent Ki from IC50 (Cheng and Prusoff)).

For the molecule `Cc1ccc(N2CCN(CCC3NC(=O)c4ccccc43)CC2)nc1` (stereo not drawn) [3-{2-[4-(5-Methyl-pyridin-2-yl)-piperazin-1-yl]-ethyl}-2,3-dihydro-isoindol-1-one], the Ki was 22.6 nM in experiment [1] and over 5.88 µM in experiment [3].
